Assay results reported in ChEMBL document CHEMBL5344412, “Dual degradation mechanism of GPX4 degrader in induction of ferroptosis exerting anti-resistant tumor effect” (Eur J Med Chem, 2023).
Values belong to the compound of their own block, whether it stands above or below them. Activity calls are given as the source filed them. The rule behind the calls is not given here.

Key:
[1] = biological target: T1, Phospholipid hydroperoxide glutathione peroxidase GPX4 (Homo sapiens) (UniProt P36969); assay: Induction of GPX4 degradation in human HT-1080 cells at 100 nM incubated for 6 hrs relative to control; type: cell-based
T1 sequence (whole entry): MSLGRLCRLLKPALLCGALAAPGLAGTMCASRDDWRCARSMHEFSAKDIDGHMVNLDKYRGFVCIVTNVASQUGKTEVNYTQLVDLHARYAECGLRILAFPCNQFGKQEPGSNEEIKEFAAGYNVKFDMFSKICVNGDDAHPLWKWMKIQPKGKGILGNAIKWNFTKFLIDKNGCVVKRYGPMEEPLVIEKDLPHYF

Calu-1 = assay: Antiproliferative activity against human Calu-1 cells assessed as inhibition of cell growth incubated for 24 hrs by MTT assay; type: functional, cell-based; settings: Calu-1, 24 h
[2] = biological target: T1, Phospholipid hydroperoxide glutathione peroxidase GPX4 (Homo sapiens); assay: Induction of GPX4 degradation in human HT-1080 cells at 0.1 uM by Western blot analysis; type: cell-based
NCI-H1650 = assay: Antiproliferative activity against human NCI-H1650 cells assessed as inhibition of cell growth incubated for 24 hrs by MTT assay; type: functional, cell-based; settings: NCI-H1650, 24 h
[3] = Antiproliferative activity against human Gefitinib-resistant H1650 cell assessed as inhibition of cell growth incubated for 24 hrs by MTT assay; type: functional, cell-based
[4] = biological target: T1, Phospholipid hydroperoxide glutathione peroxidase GPX4 (Homo sapiens); assay: Induction of GPX4 degradation in human HT-1080 cells at 0.1 uM incubated for 6 hrs in presence of PYR41 by Western blot analysis; type: cell-based
[5] = biological target: T1, Phospholipid hydroperoxide glutathione peroxidase GPX4 (Homo sapiens); assay: Induction of GPX4 degradation in human HT-1080 cells at 0.1 uM incubated for 24 hrs in presence of 20 uM of liproxstatin-1 by Western blot analysis; type: cell-based
HT-1080 [6] = assay: Antiproliferative activity against human HT-1080 cells assessed as inhibition of cell growth incubated for 24 hrs by MTT assay; type: functional, cell-based; settings: HT-1080, 24 h
[7] = biological target: T1, Phospholipid hydroperoxide glutathione peroxidase GPX4 (Homo sapiens); assay: Induction of GPX4 degradation in human HT-1080 cells at 0.1 uM incubated for 6 hrs in presence of […] by Western blot analysis; type: cell-based
[8] = biological target: T1, Phospholipid hydroperoxide glutathione peroxidase GPX4 (Homo sapiens); assay: Induction of GPX4 degradation in human HT-1080 cells at 0.1 uM measured for 1 hr by Western blot analysis; type: cell-based
HT-1080 [9] = assay: Induction of ferroptosis in human HT-1080 cells assessed as increase in cell survival at 0.1 uM incubated for 24 hrs in presence of 0.185 uM of liproxstatin-1 by MTT assay; type: functional
[10] = biological target: T1, Phospholipid hydroperoxide glutathione peroxidase GPX4 (Homo sapiens); assay: Induction of GPX4 degradation in human HT-1080 cells at 0.1 uM measured for 24 hrs by Western blot analysis; type: cell-based
HT-1080 [11] = assay: Induction of ferroptosis in human HT-1080 cells assessed as increase in cell survival at 0.1 uM incubated for 24 hrs in presence of 0.061 uM of liproxstatin-1 by MTT assay; type: functional
[12] = biological target: T1, Phospholipid hydroperoxide glutathione peroxidase GPX4 (Homo sapiens); assay: (§1) Induction of GPX4 degradation in human Gefitinib-resistant H1650 cells incubated for 24 hrs by Western blot analysis; type: cell-based; settings: Gefitinib-resistant H1650 cell, dose 10-1000 nM
[13] = biological target: T2, Phospholipid hydroperoxide glutathione peroxidase GPX4 (Homo sapiens, UniProt P36969); assay: as §1; type: cell-based, Gefitinib-resistant H1650 cell
T2 sequence (P36969 whole entry): T1 sequence (whole entry)

[14] = biological target: T1, Phospholipid hydroperoxide glutathione peroxidase GPX4 (Homo sapiens); assay: Induction of GPX4 degradation in human HT-1080 cells at 0.1 uM incubated for 24 hrs in presence of Nec-1 by Western blot analysis; type: cell-based
[15] = Toxicity in Balb/c nude mouse xenografted with human HT-1080 cells assessed as change in body weight at 200 mg/kg, sc measured for 16 days; type: organism-based; settings: in vivo, 384 h, time 16 day
[16] = biological target: T1, Phospholipid hydroperoxide glutathione peroxidase GPX4 (Homo sapiens); assay: Induction of GPX4 degradation in human Calu-1 cells at 0.3 uM measured for 4 hrs by Western blot analysis; type: cell-based
[17] = biological target: T1, Phospholipid hydroperoxide glutathione peroxidase GPX4 (Homo sapiens); assay: Induction of GPX4 degradation in human HT-1080 cells at 0.1 uM incubated for 24 hrs in presence of Baf-A1 by Western blot analysis; type: cell-based
[18] = biological target: T1, Phospholipid hydroperoxide glutathione peroxidase GPX4 (Homo sapiens); assay: Induction of GPX4 degradation in human HT-1080 cells at 0.1 uM incubated for 24 hrs in presence of ZVF by Western blot analysis; type: cell-based
HT-1080 [19] = assay: Induction of ferroptosis in human HT-1080 cells assessed as increase in cell survival at 0.1 uM incubated for 24 hrs in presence of 0.006 uM of liproxstatin-1 by MTT assay; type: functional
[20] = biological target: T1, Phospholipid hydroperoxide glutathione peroxidase GPX4 (Homo sapiens); assay: Induction of GPX4 degradation in human NCI-H1650 cells at 0.3 uM incubated for 24 hrs by Western blot analysis; type: cell-based
[21] = biological target: T1, Phospholipid hydroperoxide glutathione peroxidase GPX4 (Homo sapiens); assay: (§2) Induction of GPX4 degradation in human NCI-H1650 cells incubated for 24 hrs by Western blot analysis; type: cell-based; settings: dose 10-1000 nM
[22] = biological target: T2, Phospholipid hydroperoxide glutathione peroxidase GPX4; assay: as §2; type: cell-based
[23] = biological target: T1, Phospholipid hydroperoxide glutathione peroxidase GPX4 (Homo sapiens); assay: Induction of GPX4 degradation in human Calu-1 cells at 0.3 uM measured for 8 hrs by Western blot analysis; type: cell-based
HT-1080 [24] = assay: Induction of ferroptosis in human HT-1080 cells assessed as increase in cell survival at 0.1 uM incubated for 24 hrs in presence of 1.670 uM of liproxstatin-1 by MTT assay; type: functional
[25] = biological target: T1, Phospholipid hydroperoxide glutathione peroxidase GPX4 (Homo sapiens); assay: (§3) Induction of GPX4 degradation in human Calu-1 cells measured for 24 hrs by Western blot analysis; type: cell-based; settings: dose 0.1-10000 nM
[26] = biological target: T2, Phospholipid hydroperoxide glutathione peroxidase GPX4; assay: as §3; type: cell-based
HT-1080 [27] = assay: Induction of ferroptosis in human HT-1080 cells assessed as increase in cell survival at 0.1 uM incubated for 24 hrs in presence of 5 uM of liproxstatin-1 by MTT assay; type: functional
HT-1080 [28] = assay: Induction of ferroptosis in human HT-1080 cells assessed as increase in cell survival at 0.1 uM incubated for 24 hrs in presence of 0.020 uM of liproxstatin-1 by MTT assay; type: functional
[29] = biological target: T1, Phospholipid hydroperoxide glutathione peroxidase GPX4 (Homo sapiens); assay: (§4) Induction of GPX4 degradation in human HT-1080 cells measured for 6 hrs by Western blot analysis; type: cell-based; settings: dose 0.3-1000 nM
[30] = biological target: T2, Phospholipid hydroperoxide glutathione peroxidase GPX4; assay: as §4; type: cell-based
[31] = biological target: T1, Phospholipid hydroperoxide glutathione peroxidase GPX4 (Homo sapiens); assay: Induction of GPX4 degradation in human HT-1080 cells at 0.1 uM pretreated for 2 hrs followed by V5 addition and measured after 6 hrs by Western blot analysis; type: cell-based; settings: time 8.0 hrs
HT-1080 [32] = assay: Induction of ferroptosis in human HT-1080 cells assessed as increase in cell survival at 0.1 uM incubated for 24 hrs in presence of 0.556 uM of liproxstatin-1 by MTT assay; type: functional
HT-1080 [33] = assay: Induction of ROS production in human HT-1080 cells assessed as increase in ROS positive cells at 0.1 uM preincubated with liproxstatin-1 for 2 hrs followed by compound addition and measured after for 7 hrs by C11-BODIPY581/891 staining based flow cytometry analysis; type: functional, cell-based
HT-1080 [34] = assay: Induction of ROS production in human HT-1080 cells assessed as increase in ROS positive cells at 0.1 uM incubated for 4 hrs by C11-BODIPY581/891 staining based flow cytometry analysis; type: functional, cell-based
[35] = biological target: T1, Phospholipid hydroperoxide glutathione peroxidase GPX4 (Homo sapiens); assay: Induction of GPX4 degradation in human HT-1080 cells at 0.1 uM measured for 6 hrs by Western blot analysis; type: cell-based

Activity [1]: 55%
Compound: COC(=O)[C@H]1Cc2c([nH]c3ccccc23)[C@H](c2ccc(C(=O)N3CCN(CCCCCCCCCCCCCCN[C@H](C(=O)N4C[C@H](O)C[C@H]4C(=O)N[C@@H](C)c4ccc(-c5scnc5C)cc4)C(C)(C)C)CC3)cc2)N1C(=O)CCl

Activity [1]: 36%
Compound: COC(=O)[C@H]1Cc2c([nH]c3ccccc23)[C@H](c2ccc(C(=O)N3CCN(CCCCCCCN[C@H](C(=O)N4C[C@H](O)C[C@H]4C(=O)N[C@@H](C)c4ccc(-c5scnc5C)cc4)C(C)(C)C)CC3)cc2)N1C(=O)CCl

Activity [1]: 60%
Compound: COC(=O)[C@H]1Cc2c([nH]c3ccccc23)[C@H](c2ccc(C(=O)N3CCN(CCCCCCCCCCCCN[C@H](C(=O)N4C[C@H](O)C[C@H]4C(=O)N[C@@H](C)c4ccc(-c5scnc5C)cc4)C(C)(C)C)CC3)cc2)N1C(=O)CCl

IC50 (Calu-1): 630 nM
Compound: Cc1onc(C(=O)N2CCN(C(c3ccc(Cl)cc3)c3ccc(Cl)cc3)CC2)c1[N+](=O)[O-]

Activity [1]: 39%
Compound: COC(=O)[C@H]1Cc2c([nH]c3ccccc23)[C@H](c2ccc(C(=O)N3CCN(CCCCCCCCCN[C@H](C(=O)N4C[C@H](O)C[C@H]4C(=O)N[C@@H](C)c4ccc(-c5scnc5C)cc4)C(C)(C)C)CC3)cc2)N1C(=O)CCl

Activity [2]: Active
IC50 (NCI-H1650): 7750 nM
Activity [4]: inactive
Activity [5]: inactive
IC50 (Calu-1): 50 nM
IC50 (HT-1080 [6]): 130 nM
Activity [7]: inactive
Compound: COC(=O)c1ccc([C@H]2c3[nH]c4ccccc4c3C[C@H](C(=O)OC)N2C(=O)CCl)cc1
IC50 [3]: 5520 nM

Activity [8]: Active
Activity [2]: Active
IC50 (NCI-H1650): 2100 nM
Activity [10]: Active
Activity [12]: Dose-Dependent Effect
EC50 [13]: 25.6 nM
Activity [14]: inactive
Activity [16]: Active
Activity [17]: inactive
Activity [18]: inactive
Activity [4]: inactive
Activity [20]: 100%
Activity [21]: Dose-Dependent Effect
EC50 [22]: 42.7 nM
Activity [23]: 100%
Activity [25]: Dose-Dependent Effect
EC50 [26]: 136 nM
Activity [5]: Active
Activity [29]: Dose-Dependent Effect
EC50 [30]: 23.3 nM
Activity [31]: inactive
Activity [1]: 63%
IC50 (Calu-1): 25 nM
IC50 (HT-1080 [6]): 58 nM
Activity [7]: inactive
Activity [35]: 100%
Compound: COC(=O)[C@H]1Cc2c([nH]c3ccccc23)[C@H](c2ccc(C(=O)N3CCN(CCCCCCCCCCCCCN[C@H](C(=O)N4C[C@H](O)C[C@H]4C(=O)N[C@@H](C)c4ccc(-c5scnc5C)cc4)C(C)(C)C)CC3)cc2)N1C(=O)CCl
Activity (HT-1080 [9]): 92.5%
Activity (HT-1080 [11]): 82.7%
Activity [15]: Non-Toxic
IC50 [3]: 1560 nM
Activity (HT-1080 [19]): 74.8%
Activity (HT-1080 [24]): 88.5%
Activity (HT-1080 [27]): 92.1%
Activity (HT-1080 [28]): 82.7%
Activity (HT-1080 [32]): 91.5%
Activity (HT-1080 [33]): Active
Activity (HT-1080 [34]): Active

Activity [1]: 52%
Compound: COC(=O)[C@H]1Cc2c([nH]c3ccccc23)[C@H](c2ccc(C(=O)N3CCN(CCCCCCCCCCCN[C@H](C(=O)N4C[C@H](O)C[C@H]4C(=O)N[C@@H](C)c4ccc(-c5scnc5C)cc4)C(C)(C)C)CC3)cc2)N1C(=O)CCl
